For experiment [1], the target named is T1, Son of sevenless homolog 1 [564-1049] (Human, UniProt Q07889).
T1 construct: 564-1049
T1 sequence (Q07889 whole entry): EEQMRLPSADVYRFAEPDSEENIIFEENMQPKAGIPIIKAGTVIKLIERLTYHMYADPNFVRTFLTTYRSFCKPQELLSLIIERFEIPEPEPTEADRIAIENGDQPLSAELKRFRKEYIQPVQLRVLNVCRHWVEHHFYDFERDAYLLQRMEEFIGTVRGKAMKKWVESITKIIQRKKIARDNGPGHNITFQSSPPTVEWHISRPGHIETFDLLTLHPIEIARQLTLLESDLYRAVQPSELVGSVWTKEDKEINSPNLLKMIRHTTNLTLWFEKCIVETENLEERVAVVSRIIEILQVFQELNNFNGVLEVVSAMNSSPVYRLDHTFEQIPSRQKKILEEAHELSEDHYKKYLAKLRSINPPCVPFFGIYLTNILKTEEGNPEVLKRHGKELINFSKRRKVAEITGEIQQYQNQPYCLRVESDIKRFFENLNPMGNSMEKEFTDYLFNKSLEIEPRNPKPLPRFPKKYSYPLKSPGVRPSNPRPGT
The experiment in a line: Surface Plasmon Resonance (SPR) SOS1 Binding AssaySurface Plasmon Resonance (SPR) SOS1 Binding Assay. How it is done:
Binding to SOS1 was measured using a SPR assay with purified recombinant human SOS1 substrate (res. 564-1049 with N-terminal Avi tag; purified and biotinylated based on Hillig, et al., Proc Natl Acad Sci USA (2019); 116(7):2551-2560). SPR measurements were performed on a Biacore 8K SPR instrument (GE Healthcare, Sweden). Assays were performed at 25° C. using Series S SA sensor chips pre-coated with streptavidin (GE Healthcare, Cat. BR100531). Biotinylated SOS1 diluted in sample buffer (20 mM Tris HCI, 150 mM NaCl, 1 mM DTT, 0.05% TWEEN 20, 1 mM MgCh, pH 8.0) was captured to one flow cell of the chip to about 3,000 resonance units (RU) using sample buffer supplemented with 5% DMSO as a running buffer. Serial dilutions of the assayed compounds in the running buffer at 100, 50 or 0.5 µM were injected for 60 s at a flow rate of 30 µL/min and association phases were recorded. Dissociation of the samples was monitored for 600 s. Data processing was performed using Biacore Insight Software (Biacore, GE Healthcare). Sensorgrams recorded on a SA flow cell without captured protein were subtracted from sensorgrams recorded on the SOS1 surface. Blank injections of running buffer were used for double referencing and solvent correction was applied to all sample sensorgrams to correct for buffer mismatches. KDS were estimated using a kinetic or steady state, where applicable, fitting model describing a reversible equilibrium with 1:1 binding between SOS1 and the compound.

For experiment [2], the target named is T2, Son of sevenless homolog 1 [564-1049]/GTPase KRas [G12C] (UniProt Q07889).
T2 construct: 564-1049
The experiment in a line: SOS1 KRas(G12C) FRET Assay. How it is done: A 2x KRAS working solution was prepared in an assay buffer containing 5 nM GST-KRAS G12C and 2 nM anti-GST-Eu(K) (Cisbio, Cat. 61GSTKLA) and pre-incubated for 15 minutes at 25° C. […] The final DMSO concentration is 0.5%. […] FRET signal was converted to percentage of protein-protein interaction using the following equation:%Inhibition=100%-C-N/P-N*100%C: signal with compound treatmentP: signal for positive control (DMSO)N: signal for negative control (no SOS1 added).

pIC50, pKd: −log10 of the molar value.

T2 sequence (P01116 whole entry G12C, one chain of several): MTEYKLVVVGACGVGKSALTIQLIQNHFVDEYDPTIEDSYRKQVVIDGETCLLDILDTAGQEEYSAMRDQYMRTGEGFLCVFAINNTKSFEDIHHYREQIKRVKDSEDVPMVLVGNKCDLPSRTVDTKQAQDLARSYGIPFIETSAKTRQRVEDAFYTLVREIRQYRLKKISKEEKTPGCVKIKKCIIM

`C[C@@H](NC(=O)c1cn(C2(C(F)(F)F)CC2)c(=O)cc1N[C@H]1[C@@H]2CN(C)C[C@@H]21)c1cccc(C(F)(F)F)c1F` [US20230348424, Example 120] showed a pKd in experiment [1] of 7.62. In addition, the pIC50 in experiment [2] was 7.45.

In experiment [1], `Cc1c([C@@H](C)NC(=O)c2cn(C3CCOCC3)c(=O)cc2NC2CCN(C)CC2)cccc1C(F)(F)F` [US20230348424, Example 1] gave a pKd of 8.22.

Compound `C[C@@H](NC(=O)c1cn(C23CC(C2)C3)c(=O)cc1N[C@H]1[C@@H]2CNC[C@@H]21)c1cccc(C(F)F)c1F` [US20230348424, Example 89] gave a pKd in experiment [1] of 7.92.

In general, pKd refers to the Kd on a negative log10 scale, so that one unit is a factor of ten. Low readings indicate a large Kd, high ones a small Kd. One may read the pIC50 as the negative decadic logarithm of the IC50, by convention in mol/L. Low readings indicate a high IC50, high ones a low IC50.

Source of the values: BindingDB's records for patent US20230348424 (Schrödinger, 2023).
